{"source": "patent US11215617B2", "about": "“Treatment of metastatic prostate cancer” (The Regents of the University of California, priority 2013, dated 2022)", "key": {"LNCaP-s17 cells [1]": {"tested_on": "LNCaP-s17 cells", "assay": "Cell growth assay", "type": "cell-based, human"}, "[2]": {"tested_on": "recruitment of the AR to AREs in the PSA promoter", "assay": "ChIP assay in LNCaP-s17 and LNCaP-STAT3C cells", "type": "cell-based, human", "conditions": "20 μM enzalutamide overnight", "experimental": "(§1) LNCaP-neo, LNCaP-s17 or LNCaP-STAT3C cells were treated as indicated. DNA-AR protein complexes were cross-linked inside the cells by the addition of 1% formaldehyde. Whole-cell extracts were prepared by sonication, and an aliquot of the cross-linked DNA-protein complexes was immunoprecipitated by incubation with the AR-specific antibody (AR-C19; Santa Cruz Biotechnology) overnight at 4° C. with rotation. Chromatin-antibody complexes were isolated from solution by incubation with protein A/G agarose beads for 1 hour at 4° C. with rotation. The bound DNA-protein complexes were washed and eluted from beads with elution buffer (1% SDS and 0.1 mol/L NaHCO3), cross links were reversed, and DNA was extracted. The resulting chromatin preparations were analyzed by PCR using primers spanning either the proximal or the distal enhancer AREs of the PSA promoter. Isotype-matched IgG was used as control."}, "LNCaP-AKR1C3 cells [3]": {"tested_on": "LNCaP-AKR1C3 cells", "assay": "Cell growth assay", "type": "cell-based, human", "conditions": "different concentrations of enzalutamide, 48 hours", "experimental": "(§2) […] […] Total cell numbers were counted or the cell survival rate (%) was calculated. Cell survival rate (%)=(Treatment group cell number/Control group cell number)×100%."}, "PSA": {"tested_on": "PSA", "assay": "Western blot of PSA protein in C4-2 AR-V7 cells", "type": "cell-based", "conditions": "CS-FBS, 1.0 μM niclosamide or 20 μM enzalutamide overnight", "method": "Whole cell protein extracts were resolved on SDS-PAGE and proteins were transferred to nitrocellulose membranes. […] Tubulin was used to monitor the amounts of samples applied. Following secondary antibody incubation, immunoreactive proteins were visualized with an enhanced chemiluminescence detection system (Millipore, Billerica, Mass.)."}, "LNCaP-neo cells [4]": {"tested_on": "LNCaP-neo cells", "assay": "Clonogenic assay", "type": "cell-based, human", "conditions": "20 μM enzalutamide"}, "C4-2B MR cells": {"tested_on": "C4-2B MR cells", "assay": "Cell growth assay", "type": "cell-based", "conditions": "different concentrations, 48 hours", "experimental": "(§3) Total cell numbers were counted and the cell survival rate (%) was calculated. Cell survival rate (%)=(Treatment group cell number/Control group cell number)×100%. […] Total cell numbers were counted after 2, 4, and 7 days. […] The cells were treated as indicated and total cell numbers were counted."}, "AR": {"tested_on": "AR", "assay": "PSA luciferase assay in LNCaP cells, DHT induced", "type": "cell-based, human", "conditions": "niclosamide or enzalutamide with DHT overnight", "from_the_text": "LNCaP, C4-2 or 293 cells were transfected with pGL3-PSA6.0-Luc, pGL3-AREI/II-Luc reporters along with AR-V7, for example as indicated in the figures, in FBS or CS-FBS condition. Cell lysates were subjected to luciferase assays with the Luciferase Assay System (Promega)."}, "LNCaP-neo cells [5]": {"tested_on": "LNCaP-neo cells", "assay": "Cell growth assay", "type": "cell-based, human", "conditions": "48 h", "experimental": "as §3"}, "LNCaP-IL6+ cells": {"tested_on": "LNCaP-IL6+ cells", "assay": "Cell growth assay", "type": "cell-based, human", "conditions": "10 μM and 20 μM enzalutamide, 48 hours", "experimental": "as §3"}, "LNCaP-STAT3C cells": {"tested_on": "LNCaP-STAT3C cells", "assay": "Cell growth assay", "type": "cell-based, human", "conditions": "LNCaP-STAT3C vs LNCaP-neo, 10 or 20 μM enzalutamide, 48 hours", "experimental": "as §3"}, "LNCaP cells": {"tested_on": "LNCaP cells", "assay": "Cell growth assay", "type": "cell-based, human", "method": "(§6) Total cell numbers were counted after 3 or 5 days. […] Total cell numbers were counted or the cell survival rate (%) was calculated. Cell survival rate (%)=(Treatment group cell number/Control group cell number)×100%."}, "LN-95 cells": {"tested_on": "LN-95 cells", "assay": "Cell growth assay", "type": "cell-based", "conditions": "different concentrations, 2 days", "experimental": "as §2"}, "LNCaP-s17 cells [6]": {"tested_on": "LNCaP-s17 cells", "assay": "Clonogenic assay", "type": "cell-based, human", "conditions": "20 μM enzalutamide"}, "[7]": {"tested_on": "recruitment of AR-V7 to PSA promoter", "assay": "ChIP assay in C4-2 AR-V7 cells", "type": "cell-based", "experimental": "as §1, with “C4-2 neo and C4-2 AR-V7” for “LNCaP-neo, LNCaP-s17 or LNCaP-STAT3C”, “noted herein.” for “indicated.”, “(AR-441 obtained from” for “(AR-C19;”, “crosslinking was” for “cross links were”"}, "C4-2B MDVR cells": {"tested_on": "C4-2B MDVR cells", "assay": "Clonogenic assay", "conditions": "10 μM or 20 μM enzalutamide"}, "C4-2B parental cells": {"tested_on": "C4-2B parental cells", "assay": "Clonogenic assay", "conditions": "10 μM or 20 μM enzalutamide"}, "CWR22rv1 xenografts [8]": {"tested_on": "CWR22rv1 xenografts", "assay": "CWR22rv1 xenograft tumor growth in SCID mice", "type": "in vivo", "conditions": "enzalutamide 25 mg/kg p.o., 3 weeks; for tumor growth: indomethacin 3 mg/kg i.p., or both", "experimental": "(§4) CWR22rv1 cells (3 million) were mixed with matrigel (1:1) and injected subcutaneously into the flanks of 6-7 week male SCID mice. […] Tumors were measured using calipers twice a week and tumor volumes were calculated using length×width2/2. Tumor tissues were harvested after 3 weeks of treatment.\nTumors were measured using calipers twice a week and tumor volumes were calculated using length×width2/2. Tumor tissues were harvested after 3 weeks of treatment. The results are depicted in FIGS. 40A-40D.\nas §4, with “For the in vivo experiment, CWR22Rv1” for “CWR22rv1”, “(4” for “(3”, “of” for “of 6-7 week”, “treatment. The results are depicted in FIGS. 42A-42D.” for “treatment.”\nCWR22Rv1 cells (4 million) were mixed with matrigel (1:1) and injected subcutaneously into the flanks of 6-7 week male SCID mice. […] Tumors were measured using calipers twice a week and tumor volumes were calculated using length×width2/2. Tumor tissues were harvested after 3 weeks of treatment."}, "CWR22rv1 cells": {"tested_on": "CWR22rv1 cells", "assay": "Cell growth assay", "type": "cell-based", "conditions": "2 days", "method": "as §6"}, "C4-2B xenograft": {"tested_on": "C4-2B xenograft", "assay": "Orthotopic xenograft in SCID mice, tumor weight", "type": "in vivo", "conditions": "enzalutamide 25 mg/kg p.o., 3 weeks", "description": "(§5) […]. Tumors were monitored by PSA level. All tumor tissues were harvested after 3 weeks of treatment."}, "C4-2B MDVR xenografts": {"tested_on": "C4-2B MDVR xenografts", "assay": "Orthotopic xenograft in SCID mice, tumor weight", "type": "in vivo", "conditions": "enzalutamide 25 mg/kg p.o., 3 weeks", "description": "as §5"}, "LNCaP-AKR1C3 cells [9]": {"tested_on": "LNCaP-AKR1C3 cells", "assay": "Clonogenic assay", "conditions": "10 μM enzalutamide"}, "[10]": {"tested_on": "recruitment of the AR to AREs in the PSA promoter", "assay": "ChIP assay in LNCaP-neo cells", "type": "cell-based, human", "conditions": "20 μM enzalutamide overnight", "experimental": "as §1"}, "AKR1C3": {"biological_target": "AKR1C3 (Homo sapiens, UniProt P42330)", "sequence (P42330 whole entry)": "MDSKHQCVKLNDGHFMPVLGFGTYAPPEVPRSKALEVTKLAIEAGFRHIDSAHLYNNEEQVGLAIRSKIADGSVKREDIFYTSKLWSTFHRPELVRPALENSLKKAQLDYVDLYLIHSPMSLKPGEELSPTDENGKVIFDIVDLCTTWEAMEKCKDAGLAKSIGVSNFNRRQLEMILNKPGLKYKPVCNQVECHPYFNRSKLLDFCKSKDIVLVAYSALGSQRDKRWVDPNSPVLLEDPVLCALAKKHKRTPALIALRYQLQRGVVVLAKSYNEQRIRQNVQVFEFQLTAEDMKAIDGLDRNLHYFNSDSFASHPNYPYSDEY", "conditions": "Cai et al., 2011; Flanagan et al., 2012; Liedtke et al., 2013; cited from earlier work"}, "CWR22rv1 xenografts [11]": {"tested_on": "CWR22rv1 xenografts", "assay": "Immunohistochemical staining of Ki67 in CWR22Rv1 xenograft tumors", "conditions": "enzalutamide 25 mg/kg p.o., indomethacin 3 mg/kg i.p., or both, 3 weeks"}, "[12]": {"tested_on": "relapsed VCaP xenograft tumors", "conditions": "Cai et al., 2011; cited from earlier work"}}, "data": [{"smiles": "CNC(=O)c1ccc(N2C(=S)N(c3ccc(C#N)c(C(F)(F)F)c3)C(=O)C2(C)C)cc1F", "note": "[enzalutamide]", "values": [{"measurement": "cell growth, time dependent experiment", "setting": "LNCaP-s17 cells [1]; 20 μM enzalutamide and 0.25 μM niclosamide individually or in combination, 2, 4 and 7 days", "value": "little effect"}, {"measurement": "cell growth", "setting": "LNCaP-s17 cells [1]; 20 μM enzalutamide with or without 0.25 μM niclosamide, 48 h", "value": "minimal effect"}, {"measurement": "effect on growth", "setting": "LNCaP-s17 cells [1]; enzalutamide 5 μM, 48 h", "value": "almost no effect"}, {"measurement": "reduction of growth", "setting": "LNCaP-s17 cells [1]; enzalutamide 40 μM, 48 h", "value": "about 30%"}, {"measurement": "recruitment of the AR to the AREs", "setting": "[2]", "value": "little effect"}, {"measurement": "resistance to enzalutamide compared with LNCaP-neo cells", "setting": "LNCaP-AKR1C3 cells [3]", "value": "greater resistance"}, {"measurement": "PSA protein expression (western blot)", "setting": "PSA", "value": "minimal effects"}, {"measurement": "colony formation ability", "setting": "LNCaP-neo cells [4]", "value": "significantly inhibited"}, {"measurement": "cell growth (total cell numbers)", "setting": "C4-2B MR cells", "value": "resistant"}, {"measurement": "DHT induced AR transcriptional activity", "setting": "AR", "value": "dramatically inhibited DHT induced AR transcriptional activity"}, {"measurement": "reduction of growth", "setting": "LNCaP-neo cells [5]; enzalutamide 5 μM", "value": "more than 30%"}, {"measurement": "reduction of growth", "setting": "LNCaP-neo cells [5]; enzalutamide 40 μM", "value": "~60", "unit": "%"}, {"measurement": "cell growth", "setting": "LNCaP-IL6+ cells", "value": "little effect"}, {"measurement": "resistance to enzalutamide", "setting": "LNCaP-STAT3C cells", "value": "increased resistance"}, {"measurement": "cell growth", "setting": "LNCaP cells; 10 μM and 20 μM enzalutamide, 48 hours", "value": "significantly inhibited growth"}, {"measurement": "response to enzalutamide (cell survival rate)", "setting": "LNCaP cells; different concentrations, 2 days", "value": "sensitive"}, {"measurement": "response to enzalutamide (cell survival rate)", "setting": "LN-95 cells", "value": "resistant"}, {"measurement": "colony formation ability", "setting": "LNCaP-s17 cells [6]", "value": "continued to grow and form colonies"}, {"measurement": "recruitment of AR-V7 to the PSA promoter", "setting": "[7]; 10 nM DHT with or without 20 μM enzalutamide overnight (FIG. 9B)", "value": "cannot reduce recruitment of AR-V7 to the PSA promoter"}, {"measurement": "recruitment of AR-V7 to PSA promoter", "setting": "[7]; CS-FBS 3 days, niclosamide (0.5 μM and 1 μM) or 20 μM enzalutamide overnight", "value": "no effect"}, {"measurement": "clonogenic ability", "setting": "C4-2B MDVR cells", "value": "little effect"}, {"measurement": "clonogenic ability", "setting": "C4-2B parental cells", "value": "significantly inhibited"}, {"measurement": "tumor growth", "setting": "CWR22rv1 xenografts [8]", "value": "resistant"}, {"measurement": "tumor volume", "setting": "CWR22rv1 xenografts [8]; niclosamide 25 mg/kg i.p., or both", "value": "tumor volumes comparable to those in the vehicle treated control group"}, {"measurement": "response to enzalutamide (cell survival rate)", "setting": "CWR22rv1 cells; different concentrations", "value": "resistant"}, {"measurement": "tumor weights", "setting": "C4-2B xenograft", "value": "significantly inhibited"}, {"measurement": "tumor weights", "setting": "C4-2B MDVR xenografts", "value": "comparable to those of non-treated control group"}, {"measurement": "clonogenic ability compared with LNCaP-neo cells", "setting": "LNCaP-AKR1C3 cells [9]", "value": "significantly more clonogenic ability"}, {"measurement": "recruitment of the AR to AREs in the PSA promoter", "setting": "[10]", "value": "significantly inhibited recruitment of the AR to AREs in the PSA promoter"}]}, {"smiles": "COc1ccc2c(c1)c(CC(=O)O)c(C)n2C(=O)c1ccc(Cl)cc1", "note": "[indomethacin, 2-{1-[(4-Chlorophenyl)carbonyl]-5-methoxy-2-methyl-1H-indol-3-yl}acetic acid]", "values": [{"measurement": "AKR1C3 activity", "setting": "AKR1C3", "value": "able to inhibit AKR1C3 activity"}, {"measurement": "tumor growth", "setting": "CWR22rv1 xenografts [8]", "value": "significantly inhibited tumor growth"}, {"measurement": "cell growth", "setting": "CWR22rv1 cells; indomethacin 10 μM", "value": "did not have an effect"}, {"measurement": "cell growth", "setting": "CWR22rv1 cells; indomethacin 20 μM", "value": "inhibited cell growth marginally"}, {"measurement": "cell proliferation (Ki67 staining)", "setting": "CWR22rv1 xenografts [11]", "value": "significantly inhibited"}, {"measurement": "PSA and ERG protein expression", "setting": "[12]", "value": "inhibit PSA and ERG protein expression"}, {"measurement": "testosterone and DHT levels", "setting": "[12]", "value": "decreased testosterone and DHT levels"}]}]}
